# Results taken from US10004688B2, “Liposomal mupirocin” (priority 2014, dated 2018).
# Key:
# [1] = literature data, free mupirocin; cited from earlier work
# [2] = tested on: gram-positive bacteria, including the methicillin-resistant Staphylococcus aureus (MRSA) and Streptococcus pneumoniae; settings: gram-positive bacteria incl. MRSA and Streptococcus pneumoniae; cited from earlier work
# [3] = tested on: Group A streptococcus (GAS); experiment: Mice necrotizing fasciitis model; type: in vivo, Female BALB/c mice
# Description: Necrotizing fasciitis model was performed based on a published method [Hidalgo-grass, C. et al. Mechanisms of disease Effect of a bacterial pheromone peptide on host chemokine degradation in group A streptococcal necrotising soft-tissue infections. 363, (2004)]. Specifically the working protocol included:
# Female BALB/c mice, 10 g weight and at the age of 3-4 weeks were selected.
# 1st Day: Bacteria were seeded on blood-agar plates and incubated at 37° C. THY medium was prepared, autoclaved and kept at room temperature.
# 2nd Day: plates were taken from the incubator and placed at room temperature.
# 4th Day: bacteria were transferred from the plates to 5 ml THY tube (warmed in the incubator).
# 5th Day: 2 ml bacteria were transferred from the 5 ml THY tube to 50 ml THY tube. Bacteria were grown to early logarithmic phase (O.D600=0.3-0.4), washed with PBS and suspended in PBS to O.D600=0.8 which correlates to 10^8 bacteria in injected volume of 100 μl. The obtained bacteria volume was divided to vials according to the number of mice in the study. Each dilution was seeded on blood agar plates and counting colonies on the day after.
# On the 5th day, mice hair was removed from the center of mice back and bacteria were injected subcutaneously.
# Disease condition was followed according to the Table 2A below.
# Specifically, Group A streptococcus (GAS) injection (0.75×10^8 CFU) was administered to all study groups. The drug was administered by IV injection of 100 μl formulation. Eachliposomal mupirocin dose was 45 mg/kg. Each free mupirocin dose was 50 mg/kg.
# serum protein = settings: cited from earlier work
# [4] = Mupirocin solubility in buffers and solubilizer solutions; type: physicochemical
# Description: Liposomes were prepared using the calcium acetate (CA) gradient method [Clerc S, Barenholz Y. 1995. Loading of amphipathic weak acids into liposomes in response to transmembrane calcium acetate gradients. Biochim Biophys Acta 1240:257-265]. Specifically, lipids in a mole ratio of 55:40:5 HSPC: cholesterol: mPEG DSPE were mechanically hydrated by stirring at 65° C. with 200 mM calcium acetate pH 5.5, at a weight ratio of 1:9. The liposomal dispersion was downsized by stepwise extrusion by the Northern Lipids (Burnaby, BC, Canada) extruder using polycarbonate filters starting with 3 times extrusion through a 400 nm pore size membrane, then 3 times through a 100 nm pore size membrane, and finally 10 times through a 50 nm pore size membrane. Liposomes were then dialyzed using a Cellu Sep regenerated cellulose membrane (Membrane Filtration Products, USA), against a 10% sucrose solution. In the case of HPCD-containing liposomes, lipids were hydrated by 200 mM calcium acetate pH 5.5 containing 15% (w/w) HPCD. Control HPCD liposomes were prepared by hydrating lipids with 15% (w/w) HPCD in phosphate buffer 200 mM pH 6.3. All other preparation steps (downsizing and dialysis) were the same as described above. Remote loading was performed by incubating at 65° C. for 10 min a solution of the drug with the liposome dispersion at a volume ratio of 1:1. Liposomes used for loading were freshly prepared and used within one week. Drug loading solutions were prepared in 200 mM phosphate buffer pH 6.3. High mupirocin concentrations in phosphate buffer pH 6.3 (28 mM) were achieved by vigorous stirring and 10 min sonication in a bath sonicator. Loading was also tested from 1 to 10% (w/w) HPCD solutions in phosphate buffer pH 6.3. High mupirocin concentration (28 mM) in 1% HPCD solution was achieved by vigorous stirring and sonication as described for phosphate buffer. Mupirocin solutions in higher HPCD concentrations (2.5-10%) were prepared by stirring only. Loading was also performed from propylene glycol (PG) and from polyethylene glycol (PEG) 400 solutions. In these cases, a stock solution of 100 mM mupirocin was prepared and diluted to the desired concentration with 200 mM phosphate buffer pH 6.3.
# Mupirocin is not freely soluble in aqueous medium. Being a weak acid, its solubility increases with pH. Mupirocin was soluble in phosphate buffer 200 mM pH 6.3 up to a concentration of 15 mM. […] However, high concentrations (≥28 mM) in 1% HPCD required 10 min sonication in order to achieve a clear solution. It should be noted that the chromatographic profile of mupirocin in the different solutions tested was similar to that of a standard solution.
# Neisseria gonorrhoeae = settings: cited from earlier work
# [5] = group 2: free drug 50 mg/kg IV 3 h before and 3 and 24 h after GAS injection (150 mg/kg/day), 24 h after challenge
# [6] = group 2: free drug 50 mg/kg IV 3 h before and 3 and 24 h after GAS injection (150 mg/kg/day), 48 h after challenge
# [7] = group 2: free drug 50 mg/kg IV 3 h before and 3 and 24 h after GAS injection (150 mg/kg/day), 72 h after challenge
# [8] = group 2: free drug 50 mg/kg IV 3 h before and 3 and 24 h after GAS injection (150 mg/kg/day), 96 h after challenge
smiles,measurement,setting,value
"C/C(=C\C(=O)OCCCCCCCCC(=O)O)C[C@@H]1OC[C@H](C[C@@H]2O[C@H]2[C@@H](C)[C@H](C)O)[C@@H](O)[C@H]1O [Mupirocin, 9-[(E)-4-[(2S,3R,4R,5S)-3,4-dihydroxy-5-[[(2S,3S)-3-[(2S,3S)-3-hydroxybutan-2-yl]oxiran-2-yl]methyl]oxan-2-yl]-3-methylbut-2-enoyl]oxynonanoic acid]",elimination half-life,[1],20 to 40 min
same,activity in vitro,[2],active in vitro
same,% weight change,"[3]; group 2: free drug 50 mg/kg IV 3 h before and 3 and 24 h after GAS injection (150 mg/kg/day), 24 h after bacteria challenge",−7%
same,Average mice weight,[3]; [5],12.5 g
same,Description of mice movement,[3]; [5],Regular
same,Eyes appearance,[3]; [5],Open eyes
same,Hair appearance,[3]; [5],Rough hair
same,Mice mortality,[3]; [5],0
same,Wound appearance,[3]; [5],No wound
same,Average mice weight,[3]; [6],11.7 g
same,Description of mice movement,[3]; [6],Regular
same,Eyes appearance,[3]; [6],Open eyes
same,Hair appearance,[3]; [6],Rough hair
same,Mice mortality,[3]; [6],0
same,Average mice weight,[3]; [7],12.3 g
same,Description of mice movement,[3]; [7],Regular
same,Eyes appearance,[3]; [7],Open eyes
same,Mice mortality,[3]; [7],0
same,Average mice weight,[3]; [8],12.7 g
same,Description of mice movement,[3]; [8],Regular
same,Eyes appearance,[3]; [8],Open eyes
same,Mice mortality,[3]; [8],0
same,mortality,"[3]; mice, GAS s.c. challenge, IV treatment",did not show mortality
same,development of disease / symptoms,"[3]; mice, GAS s.c. challenge, IV treatment, listed as free drug",developed the disease 24 h after bacteria challenge
same,development of disease / symptoms,"[3]; mice, GAS s.c. challenge, IV treatment, listed as free mupirocin",developed the disease symptoms
same,protein binding affinity,serum protein,96.5%
same,solubility,"[4]; HPCD solution in phosphate buffer, aqueous with cosolvent or surfactant or cyclodextrin, thermodynamic from solid, HPCD solutions of 1-10% w/w in phosphate buffer pH 6.3",> 34 mM
same,solubility,"[4]; PEG 400, organic solvent or mixture",~100 mM
same,solubility,"[4]; aqueous buffer, thermodynamic from solid, phosphate buffer 200 mM pH 6.3, without vigorous stirring and sonication",≤ 15 mM
same,solubility at 10 min,"[4]; aqueous buffer, thermodynamic from solid, phosphate buffer pH 6.3, after vigorous stirring and sonication",~28 mM
same,solubility,"[4]; calcium acetate solution, aqueous buffer, calcium acetate 200 mM pH 5.5",< 2000 µg/mL
same,solubility,"[4]; organic solvent or mixture, PG (propylene glycol)",~100 mM
same,increase of solubility,[4]; pH 5.5,not more than 10 fold
same,MIC,Neisseria gonorrhoeae,0.05 µg/mL
